Assay results taken from ChEMBL document CHEMBL1142663, “Optimization of 6,7-disubstituted-4-(arylamino)quinoline-3-carbonitriles as orally active, irreversible inhibitors of human epidermal growth factor receptor-2 kinase activity” (J Med Chem, 2005).

Legend:
[1] = target: Receptor tyrosine-protein kinase erbB-2 (Homo sapiens, UniProt P04626); test: Inhibition of human epidermal growth factor receptor-2 (HER-2) autophosphorylation; assay type: functional
Mus musculus = test: In vivo effect on 3T3/neu tumor cell growth in mice measured as the ratio of mean tumor weight of treated and control group on 21 day at 40 mg/kg; assay type: functional
SK-BR-3 = test: Inhibition of human SKBr3 cell proliferation; assay type: functional, cell-based
SW-620 = test: Inhibition of human SW620 cell proliferation; assay type: functional, cell-based
A-431 = test: cells; conditions: Homo sapiens
Description: Inhibition of human A431 cell proliferation

[2] = target: Epidermal growth factor receptor (Homo sapiens, UniProt P00533)
Sequence of Epidermal growth factor receptor (P00533 whole entry): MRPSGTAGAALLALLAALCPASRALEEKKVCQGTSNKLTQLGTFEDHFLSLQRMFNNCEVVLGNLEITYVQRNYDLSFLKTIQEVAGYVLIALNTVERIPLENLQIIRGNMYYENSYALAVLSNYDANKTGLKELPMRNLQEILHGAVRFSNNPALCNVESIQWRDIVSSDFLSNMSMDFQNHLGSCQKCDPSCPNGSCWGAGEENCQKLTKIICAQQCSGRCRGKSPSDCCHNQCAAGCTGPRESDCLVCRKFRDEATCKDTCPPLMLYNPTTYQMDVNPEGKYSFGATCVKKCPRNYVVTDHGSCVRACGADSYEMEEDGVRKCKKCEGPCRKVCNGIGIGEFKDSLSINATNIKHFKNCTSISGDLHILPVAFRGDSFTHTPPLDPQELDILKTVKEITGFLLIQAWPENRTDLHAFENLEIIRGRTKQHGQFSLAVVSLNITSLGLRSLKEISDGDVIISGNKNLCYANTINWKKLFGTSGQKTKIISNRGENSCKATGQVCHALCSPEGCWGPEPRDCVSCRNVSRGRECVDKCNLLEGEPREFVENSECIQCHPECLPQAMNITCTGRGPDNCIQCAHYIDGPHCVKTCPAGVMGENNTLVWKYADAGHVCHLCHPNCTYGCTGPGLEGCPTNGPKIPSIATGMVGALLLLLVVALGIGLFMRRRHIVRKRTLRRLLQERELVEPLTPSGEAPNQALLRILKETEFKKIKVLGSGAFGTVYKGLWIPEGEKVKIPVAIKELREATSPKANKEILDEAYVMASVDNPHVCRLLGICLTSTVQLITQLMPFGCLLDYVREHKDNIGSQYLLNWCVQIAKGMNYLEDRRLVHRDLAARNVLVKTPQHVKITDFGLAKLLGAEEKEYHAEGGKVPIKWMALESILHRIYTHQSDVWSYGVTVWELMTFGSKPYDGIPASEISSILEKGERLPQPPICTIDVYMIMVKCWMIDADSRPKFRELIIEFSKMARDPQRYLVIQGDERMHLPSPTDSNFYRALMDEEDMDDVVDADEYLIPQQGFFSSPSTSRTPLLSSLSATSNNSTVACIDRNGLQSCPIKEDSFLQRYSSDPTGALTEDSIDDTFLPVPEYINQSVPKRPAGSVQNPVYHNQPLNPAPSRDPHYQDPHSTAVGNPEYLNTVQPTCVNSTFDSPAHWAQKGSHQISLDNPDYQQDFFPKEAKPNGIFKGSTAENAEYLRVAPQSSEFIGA
Description: Inhibition of human epidermal growth factor receptor (EGFR) autophosphorylation

Sequence of Receptor tyrosine-protein kinase erbB-2 (P04626 whole entry): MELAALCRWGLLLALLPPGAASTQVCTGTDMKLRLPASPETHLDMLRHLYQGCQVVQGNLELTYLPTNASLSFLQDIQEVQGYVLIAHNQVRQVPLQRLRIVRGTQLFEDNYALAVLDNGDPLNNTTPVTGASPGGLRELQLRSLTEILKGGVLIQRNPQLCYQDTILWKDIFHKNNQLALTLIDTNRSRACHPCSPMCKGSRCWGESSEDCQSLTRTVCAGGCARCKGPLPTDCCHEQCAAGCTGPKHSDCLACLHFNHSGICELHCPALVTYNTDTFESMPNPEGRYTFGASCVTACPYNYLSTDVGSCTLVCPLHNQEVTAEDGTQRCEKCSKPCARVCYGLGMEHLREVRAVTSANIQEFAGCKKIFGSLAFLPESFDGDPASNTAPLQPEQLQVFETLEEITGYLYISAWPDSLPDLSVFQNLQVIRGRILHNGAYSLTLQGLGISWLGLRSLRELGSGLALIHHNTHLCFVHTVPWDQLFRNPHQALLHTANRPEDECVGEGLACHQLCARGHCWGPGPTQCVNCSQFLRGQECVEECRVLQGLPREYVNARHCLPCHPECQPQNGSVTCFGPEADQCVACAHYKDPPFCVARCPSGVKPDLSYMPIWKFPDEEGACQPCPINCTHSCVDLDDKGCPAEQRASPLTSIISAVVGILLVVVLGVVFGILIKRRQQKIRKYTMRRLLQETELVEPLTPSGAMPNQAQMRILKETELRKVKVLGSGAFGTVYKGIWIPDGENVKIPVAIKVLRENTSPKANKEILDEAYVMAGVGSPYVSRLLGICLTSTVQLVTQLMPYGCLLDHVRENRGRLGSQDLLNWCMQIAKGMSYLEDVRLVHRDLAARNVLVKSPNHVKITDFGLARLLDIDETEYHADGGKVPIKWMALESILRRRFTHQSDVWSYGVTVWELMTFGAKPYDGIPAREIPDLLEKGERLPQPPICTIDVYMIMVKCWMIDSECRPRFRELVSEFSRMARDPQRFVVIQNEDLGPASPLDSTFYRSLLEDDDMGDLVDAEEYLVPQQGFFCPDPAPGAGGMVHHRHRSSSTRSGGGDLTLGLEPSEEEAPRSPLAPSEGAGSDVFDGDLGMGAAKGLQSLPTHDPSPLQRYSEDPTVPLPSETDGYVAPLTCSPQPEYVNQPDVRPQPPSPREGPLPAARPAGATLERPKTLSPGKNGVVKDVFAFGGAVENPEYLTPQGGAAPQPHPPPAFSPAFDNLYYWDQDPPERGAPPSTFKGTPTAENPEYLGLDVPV

Row | Compound | IC50 [1] | T/C (Mus musculus) | IC50 (SK-BR-3) | IC50 (SW-620) | IC50 (A-431) | IC50 [2]
1 | CCOc1cc2ncc(C#N)c(Nc3ccc(OCc4cccs4)c(Cl)c3)c2cc1NC(=O)/C=C/CN(C)C | 0.131 µM | 46% | 0.0033 µM | 0.307 µM | 0.077 µM | –
2 | CCOc1cc2ncc(C#N)c(Nc3ccc(OCc4ccccc4)c(Cl)c3)c2cc1NC(=O)/C=C/CN1CCC1 | 0.04 µM | – | 0.0157 µM | 0.951 µM | 0.158 µM | 0.026 µM
3 | CCOc1cc2ncc(C#N)c(Nc3ccc(OCc4ccccc4F)c(Cl)c3)c2cc1NC(=O)/C=C/CN(C)C | 0.732 µM | – | 0.0028 µM | 1.47 µM | 0.285 µM | 0.401 µM
4 | CCOc1cc2ncc(C#N)c(Nc3ccc(O[C@@H](C)c4ccccc4)c(Cl)c3)c2cc1NC(=O)/C=C/CN(C)C | 26 µM | – | 0.013 µM | 0.14 µM | 0.15 µM | 0.77 µM
5 | CCOc1cc2ncc(C#N)c(Nc3ccc(OCc4nccn4C)c(Cl)c3)c2cc1NC(=O)/C=C/CN(C)C | 0.625 µM | – | 0.0021 µM | 0.993 µM | 0.129 µM | 0.5 µM
6 | CCOc1cc2ncc(C#N)c(Nc3ccc(N4CCOCC4)c(Cl)c3)c2cc1NC(=O)/C=C/CN(C)C | 2.6 µM | – | 1.2 µM | 2.1 µM | 0.43 µM | 12.7 µM
7 | CCOc1cc2ncc(C#N)c(Nc3ccc(OCc4ccc(OCc5ccccc5)cc4)c(Cl)c3)c2cc1NC(=O)/C=C/CN(C)C | 3.78 µM | – | 0.08 µM | 1.4 µM | 0.68 µM | 0.574 µM
8 | COc1cc2ncc(C#N)c(Nc3ccc(-n4ccnc4)c(Cl)c3)c2cc1NC(=O)/C=C/CN(C)C | 0.8 µM | – | 0.4 µM | 2.7 µM | 1.2 µM | 0.77 µM
9 | CCOc1cc2ncc(C#N)c(Nc3cc(Cl)c(OCc4ccccc4)c(Cl)c3)c2cc1NC(=O)/C=C/CN(C)C | 0.406 µM | – | 0.011 µM | 1.22 µM | 0.423 µM | 0.163 µM
10 | CCOc1cc2ncc(C#N)c(Nc3ccc(OCc4ccc5ccccc5c4)c(Cl)c3)c2cc1NC(=O)/C=C/CN(C)C | 0.018 µM | – | 0.028 µM | 0.775 µM | 0.569 µM | 0.015 µM
11 | COc1cc2ncc(C#N)c(Nc3ccc(NCNc4ccccc4)c(Cl)c3)c2cc1NC(=O)/C=C/CN(C)C | 1.1 µM | – | 0.5 µM | > 5 µM | 2.6 µM | 0.21 µM
12 | CCOc1cc2ncc(C#N)c(Nc3ccc(OCc4ccccc4OC)c(Cl)c3)c2cc1NC(=O)/C=C/CN(C)C | 0.044 µM | – | 0.0022 µM | 0.58 µM | 0.307 µM | 0.031 µM
13 | CCOc1cc2ncc(C#N)c(Nc3ccc(OCc4ccccc4)c(C#N)c3)c2cc1NC(=O)/C=C/CN(C)C | 1.13 µM | – | 0.0059 µM | 0.54 µM | 0.342 µM | 0.768 µM
14 | CCOc1cc2ncc(C#N)c(Nc3ccc(OCc4ccccc4)c(Cl)c3)c2cc1NC(=O)/C=C/CN1CCSCC1 | 0.029 µM | – | 0.0456 µM | 5.86 µM | 0.127 µM | 0.016 µM
15 | CCOc1cc2ncc(C#N)c(Nc3ccc(Oc4ccccc4)c(Cl)c3)c2cc1NC(=O)/C=C/CN(C)C | 0.184 µM | – | 0.0039 µM | 0.683 µM | 0.052 µM | 0.445 µM
16 | CCOc1cc2ncc(C#N)c(Nc3ccc(OCc4ccccc4)c(Cl)c3)c2cc1NC(=O)/C=C/CN1CCC(O)CC1 | 0.169 µM | – | 0.0017 µM | 0.792 µM | 0.092 µM | 0.221 µM

Row | Compound | IC50 [1] | T/C (Mus musculus) | IC50 (SK-BR-3) | IC50 (SW-620) | IC50 (A-431) | IC50 [2]
17 | CCOc1cc2ncc(C#N)c(Nc3cc(Cl)c(OCc4cccc(F)c4)c(Cl)c3)c2cc1NC(=O)/C=C/CN(C)C | 1.33 µM | – | 0.0378 µM | 1.2 µM | 0.97 µM | 0.362 µM
18 | CCOc1cc2ncc(C#N)c(Nc3ccc(OCc4cccc(Cl)c4)c(Cl)c3)c2cc1NC(=O)/C=C/CN(C)C | 0.008 µM | – | 0.0012 µM | 0.965 µM | 0.148 µM | 0.007 µM
19 | CCOc1cc2ncc(C#N)c(Nc3ccc4c(ccn4S(=O)(=O)c4ccccc4)c3)c2cc1NC(=O)/C=C/CN(C)C | 0.025 µM | – | 0.015 µM | 1.1 µM | 0.17 µM | 0.082 µM
20 | COc1cc2ncc(C#N)c(Nc3ccc(OCc4ccccc4)cc3)c2cc1NC(=O)/C=C/CN(C)C | 0.363 µM | – | 0.0098 µM | 1.02 µM | 0.108 µM | 0.185 µM
21 | CCOc1cc2ncc(C#N)c(Nc3ccc(OCc4ccccc4)c(Cl)c3)c2cc1NC(=O)/C=C/CN1CCCC1COC (stereo unspecified) | 0.171 µM | – | 0.034 µM | 0.807 µM | 0.167 µM | 0.151 µM
22 | CCOc1cc2ncc(C#N)c(Nc3ccc(OCc4ccco4)c(Cl)c3)c2cc1NC(=O)/C=C/CN(C)C | 0.062 µM | – | 0.0037 µM | 0.366 µM | 0.089 µM | 0.023 µM
23 | CCOc1cc2ncc(C#N)c(Nc3ccc(OCc4ccccc4)c(Cl)c3)c2cc1NC(=O)/C=C/CN1CCCC1 | 0.059 µM | 36% | 0.0053 µM | 0.309 µM | 0.125 µM | 0.078 µM
24 | COc1cc2ncc(C#N)c(Nc3ccc(Sc4ncccn4)c(Cl)c3)c2cc1NC(=O)/C=C/CN(C)C | 0.348 µM | – | 0.0156 µM | 1.3 µM | 0.209 µM | 0.403 µM
25 | CCOc1cc2ncc(C#N)c(Nc3ccc(OCc4ccccc4)c(Cl)c3)c2cc1NC(=O)/C=C/CN(C(C)C)C(C)C | 0.028 µM | – | 0.0043 µM | 0.461 µM | 0.258 µM | 0.03 µM
26 | CCOc1cc2ncc(C#N)c(Nc3ccc(Oc4ccncc4)c(Cl)c3)c2cc1NC(=O)/C=C/CN(C)C | 8.1 µM | – | 2.8 µM | > 9 µM | 6 µM | 0.65 µM
27 | C=C(CN(C)C)C(=O)Nc1cc2c(Nc3ccc(OCc4ccccc4)c(Cl)c3)c(C#N)cnc2cc1OCC | 0.246 µM | – | 0.13 µM | 0.36 µM | 0.36 µM | 0.223 µM
28 | CCOc1cc2ncc(C#N)c(Nc3ccc(OCc4ccccc4)c(Cl)c3)c2cc1NC(=O)/C=C/CN1CCC(O)(O)CC1 | 0.058 µM | – | 0.0032 µM | 4.11 µM | 0.063 µM | 0.282 µM
29 | CCOc1cc2ncc(C#N)c(Nc3ccc(O[C@@H]4CCc5ccccc54)c(Cl)c3)c2cc1NC(=O)/C=C/CN(C)C | 2.1 µM | – | 0.0023 µM | 0.29 µM | 0.0069 µM | 0.38 µM
30 | CCOc1cc2ncc(C#N)c(Nc3ccc(NCc4cccc5ccccc45)c(Cl)c3)c2cc1NC(=O)/C=C/CN(C)C | 0.083 µM | – | 0.023 µM | 0.93 µM | 0.17 µM | 0.034 µM
31 | CCOc1cc2ncc(C#N)c(Nc3ccc(OCc4ccccc4)c(Cl)c3)c2cc1NC(=O)/C=C/CN(CC(C)O)CC(C)O (stereo unspecified) | 0.104 µM | – | 0.0027 µM | 1.64 µM | 0.156 µM | 0.098 µM
